What all share (assay): NCI tumour cell line growth inhibition, 48 h
Test [1] relates to CAKI-1 renal.
For test [2], the system named is COLO 205 colon.
Test [3] relates to HCT-15 colon.
Test [4] deals with K-562 leukemia.
The subject of test [5] is M14 melanoma.
Test [6] deals with MDA-N.
For test [7], the system named is SNB-19 CNS.
Test [8] has as its system SNB-75 CNS.
Test [9] concerns HOP-92 NSCLC.

SMILES strings stand for the structures.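 These data come from cells grown in 96-well plates and exposed to compound for 48 hours at five concentrations. Definition used: TGI = concentration required for complete inhibition of growth.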

With `CN(C)CCn1c(=O)c2ccc(NCCCN(C)CCCNc3ccc4c(=O)n(CCN(C)C)c(=O)n5c6ccc(O)cc6c(=O)c3c45)c3c(=O)c4cc(O)ccc4n(c1=O)c23`, the TGI in [1] was found to be 2.23 µM; in test [2], 0.187 µM; in test [3], 3.41 µM; in test [4] it was 0.255 µM; in test [5] it was 0.805 µM; in test [6], 0.251 µM. For the same compound, the TGI in test [7] is 1.54 µM; in test [8], 0.0627 µM.

For `c1ccc(C2=NC3OC2c2ccccc23)cc1` (centres undefined), the TGI in test [1], in [2], in test [3], in test [9], in test [4] and in test [5] was greater than 10 µM each time. The TGI in test [6], in test [7] and in test [8] was greater than 10 µM in each case.

In the case of `[N-]=[N+]=CC(=O)C1CCCN1C(=O)c1ccccc1` (centres undefined), the TGI in [1], in test [2], in test [3], in test [9], in [4] and in test [5] was greater than 10 µM throughout. Further, the TGI in test [6] is greater than 10 µM; in [7], greater than 10 µM; in [8], 8.26 µM.

For `COc1ccc(C2Oc3ccc(Cl)cc3C=C2[N+](=O)[O-])cc1` (centres undefined), the TGI in test [1], in [2], in test [3], in test [4], in test [5] and in test [6] was greater than 100 µM in each case. Moreover, the TGI in test [7] was greater than 100 µM.

In the case of `CCOC(=O)/C=C/c1nc(C#N)c(N)o1`, the TGI in test [1], in test [3], in [9], in test [4], in test [5] and in test [6] was greater than 100 µM throughout. Also, the TGI in test [7] and in [8] was greater than 100 µM throughout.

For the compound `CN(/N=C1\C(=O)Nc2ccccc21)c1ccccc1`, the TGI in test [1], in test [3], in test [9], in test [4], in [5] and in test [6] was greater than 100 µM in each case. The TGI in [7] and in [8] was greater than 100 µM each time.

As for `COCOc1ccc(C(=O)Oc2cccc3c2OC(C)(C)O3)c(OCOC)c1`, the TGI in [1], in [2], in test [3], in [9], in [4] and in [5] was greater than 100 µM in each case. In addition, the TGI in test [6] and in test [8] was greater than 100 µM each time.

For the compound `Cc1ccccc1-c1nc2c(N)nc(N)nc2nc1N`, the TGI in test [1], in test [2], in test [3], in [4], in test [5] and in test [6] was greater than 100 µM in each case. For the same compound, the TGI in test [7] and in [8] was greater than 100 µM each time.

Consider `c1ccc2c(c1)SCCCS2`, for which the TGI in test [2], in test [3], in test [9], in test [4], in test [5] and in test [6] was greater than 100 µM in each case. The TGI in test [7] and in test [8] was greater than 100 µM each time.

In the case of `CC(=O)O[C@@H](c1nccn1Cc1ccccc1)[C@H]1OC(C)(C)O[C@@H]1[C@H]1COC(C)(C)O1`, the TGI in test [1], in [2], in test [3], in test [9], in [4] and in test [6] was greater than 100 µM each time. Further, the TGI in [8] was greater than 100 µM.

Take `COc1ccc2c(c1)c1c(n2CCN2CCCCC2)-c2cccc(OC)c2CC1`: the TGI turned out to be 37.7 µM in [1]; 39 µM in [2]; 70.1 µM in test [3]; 31.6 µM in test [4]; 25 µM in test [5]; 35 µM in test [6]. Also, the TGI in test [7] was 29.7 µM; in [8], 46.1 µM.

In the case of `COC(=O)CNC(=O)C(CSC(=O)OCC1c2ccccc2-c2ccccc21)NC(=O)CCC(NC(=O)OCC1c2ccccc2-c2ccccc21)C(=O)OC` (centres undefined), the TGI was 19.9 µM in test [1]; 78.9 µM in test [2]; greater than 100 µM in test [3]; 30.8 µM in test [9]; 82.7 µM in test [4]; 58.9 µM in test [5]. The values for the TGI in test [6] and in test [7] were 38.5 µM and 68.1 µM, respectively.

Regarding `COc1ccc2ccc3oc(=O)c(C)cc3c2c1`, the TGI in [1], in [2], in [4], in test [5], in test [6] and in test [7] was greater than 100 µM throughout. This compound also gave a TGI in test [8] greater than 100 µM.

With `O=c1ccc2ccc(S)cc2o1`, the TGI in test [1], in test [2], in [3], in test [9], in [5] and in test [6] was greater than 100 µM in each case. Also, the TGI in [7] and in test [8] was greater than 100 µM in each case.

As to `O=C(COc1ccc(OCC(=O)N/N=C/c2ccc(-c3ccc(Cl)cc3Cl)o2)c(Cl)c1)N/N=C/c1ccc(-c2ccc(Cl)cc2Cl)o1`, the TGI is greater than 100 µM in [1]; greater than 100 µM in test [2]; greater than 100 µM in test [3]; 50.2 µM in test [4]; greater than 100 µM in [5]; greater than 100 µM in test [6]. In [7], this compound displayed a TGI greater than 100 µM.

Regarding `CC(C)C(Br)CCC1=CCC(Br)(Br)C1` (centres undefined), the TGI in test [1] was 33.7 µM; in [2] it was 29.6 µM; in test [9], 19.5 µM; in [4], greater than 100 µM; in test [5], 12.9 µM; in test [6], 10.4 µM. In addition, the TGI in test [7] turned out to be 32 µM; in test [8] it was 23.3 µM.

Regarding `c1c[nH]c(-c2cccc3nsnc23)c1`, the TGI in test [1], in test [2], in test [3], in [4], in [5] and in [6] was greater than 100 µM throughout. Besides, the TGI in test [7] and in [8] was greater than 100 µM throughout.

The values are drawn from PubChem BioAssay (NCI).
